# Experimental data from patent publication US20240116994A1, “Peptides And Use Thereof For Diagnosing And Treating Antiphospholipid Syndrome” (UNIVERSITE DE GENEVE, priority 2021, published 2024).
# Where no end group is shown, it is not given here.
# Tests used:
# [1] = tested on: aPL (pool from APS patients); assay: Determination of aPL by ELISA on coated peptides / biotinylated peptides (custom immunoassay); assay type: binding, Human
# Method: (§1) Determination of aPL by ELISA—MaxiSorp™ 96 well plates (Nunc) or Streptavidin plate (Thermofisher) were coated with 10 μg/ml recombinant domains of β2GP1, peptides or biotinylated-peptide prior to incubation with aPLA. Secondary anti-human antibodies conjugated to IR800CW (Rockland) or HRP were used. Protein- or peptide-bound antibodies were detected and quantified by the Odyssey system (Li-Cor Biosciences) or absorbance in optical densities (OD) was determined at 405 nm (molecular Devices™ Filtermax).
# The de Groot's research group has pointed at the importance of hydrophobic character of the plate during coating of R39-R43 epitope. In order to abrogate of the plate-dependent aPL binding, the Ia-1 and Ib-1 peptides as well as the R39-R43 with a biotin at their N-terminal were synthetized and coated a streptavidin plate. In this configuration, the different peptides are flag oriented in the space preventing any interaction with the plate. It was thus observed that the flag-type orientation of R39-R43-biot leads to 8.52×more interaction with aPL while they show 9.63×more binding for Ib-1-biot presenting the same position. […] The surface plasmon resonance (SPR) technique is used to determine the relative avidity of aPL for R39-R43-biot and Ib-1-biot. The interaction between aPL and immobilized R39-R43-biot or Ib-1-biot is monitored by flowing various concentrations of aPL over a R39-R43-biot- or Ib-1-biot-coated chip surface (FIG. 1C). Through SPR experiments, it appears that aPL avidity for Ib-1-biot presents a resonance unit (RU) of 51.49 at 1/1,000 of dilution and a RU of 27.61 at 1/10,000 of dilution while, at the same dilution, it present a RU of 27.36 and a RU of 17.99 with R39-R43-biot, respectively (FIG. 1C). However, at higher concentrations, the peptides seems to show no differences in the interactions with aPL. […] Considering that IgG valency, it was decided to generate a dimeric Ib-1-biot peptide (Ib-1-biot-2x). This new polypeptide carries thus two optimized epitopes which have the opportunity to interact with two Fab fragment present on aPL. […] At higher concentration, i.e dilution of 1/100, the avidity for dimeric peptide is 28×more than for the monomeric (FIG. 1D).
# It was performed a peptide substitution scan of Ib-1-biot VSRGGMRKKKKPLTG (SEQ ID NO: 6) carrying the optimized epitope Ib-1-biot and based on an exchange of the underlined amino acid positions with the 20 main amino acids. The resulting peptide microarrays contained 140 different peptides. It was observed that the peptide substitution of the position n° 1, 2, 12 and 15 have significant influences on the ability to interact with aPL from patients 1, 2, 3, 4 and, in particular, form the plasma pool. Indeed, the substitution of the position 1, 12 or 15 by an Arginine (R) or a Lysine (K) increases the avidity of the peptide for all aPL from patients. […] In this context, the enhancement relative to Ib-1.0-biot-2x of identified peptides was evaluated (FIG. 2A). […] However, streptavidin being known to produce unspecific binding, it was used the ratio between aPL and a pool of human plasma as control (B/B0) (FIG. 2B, upper panel). This representation therefore allows to distinguish the real levels of interactions. It was then performed a dilution assay from dilution of 1/100 to 1/1,200,000 and it was observed relevant differences between the different identified peptides. By comparison of area under the curve (AUC), it was possible to detect the most prone-interacting peptide with aPL. Thus, the peptide IIa-8.0-biot-2x obtained the higher AUC (FIG. 2B, bottom panel). To formally quantify the ability of aPL to interact with IIa-8.0-biot-2x, it was monitored by flowing various concentrations of aPL over a IIa-8.0-biot-2x-coated chip surface (FIG. 2C). […] In FIG. 2C, bottom panel, it can be appreciated more precisely the improvement of the quality of interactions. […]
# aPL produced by mice = assay: ELISA of IgG anti-IIa-8.0-biot-2x in serum of lupus-prone mice; assay type: binding; conditions: serum of apoe−/−.Nba2.Yaa mice on HCD (FIG. 3A)
# Description: B6.Nba2. Yaa mice were generated as described.^8 The Apoe^−/− null mutation was introduced in B6.Nba2.Yaa mice by breeding. Eleven-week old Apoe^−/− C57B1/6 and Apoe^−/−Nba2.Yaa mice were subjected to 11 weeks of high cholesterol diet (HCD) (20.1% fat, 1.25% cholesterol, Research Diets, Inc., New Brunswick, NJ), as a model of advanced atherosclerosis. The treatments and atherosclerosis protocols were well-tolerated by the mice, and no adverse events (such as weight loss and signs of systemic toxicity) were reported. At sacrifice, haematological parameters were routinely measured. Animals were euthanized by exsanguination after anesthesia with 4% isoflurane. All breeding and experimental protocols and procedures were reviewed and approved by the Institutional Animal Care and Use Committee of the Geneva University School of Medicine.
# as §1, with “Filtermax). […]” for “Filtermax).”
substance,measurement,setting,value
"IIa-8.0-biot-2x: dimeric biotinylated IIa-8.0 peptide; also used associated with streptavidin magnetic beads (RSRGGMRKRKKPLTGRSRGGMRKRKKPLTG; also: dimeric peptide (two IIa-8.0 copies), biotinylated, site not given here)","ability to interact with aPL, enhancement relative to Ib-1.0-biot-2x","[1]; ELISA, four dilutions of aPL pool (FIG. 2A)",significantly increased with at least three of the four dilutions
same,"area under the curve (AUC) of dilution assay, B/B0","[1]; dilution 1/100 to 1/1,200,000, aPL pool / pool of healthy plasma (FIG. 2B)",higher AUC
same,interaction with aPL produced by mice,aPL produced by mice,able to interact also with aPL produced by mice
